Several values for one entry are separate records, joined by “and”; a condition that tells them apart may be missing. Equal values may be shown once.
Experiments:
[1] = test system: carrageenin-induced rat paw edema; assay: Inhibition of carrageenin-induced rat paw edema; type: in vivo, Fisher 344 rats
Procedure: The incipient pattern of this edema is characterized by the effects of histamine and 5-hydroxytryptamine. After 1 h, reduction of edema in the rat paw achieved by the pteridine 18f was appreciably greater than the reduction induced by the reference compound indomethacin, a nonselective COX-inhibitor and commonly used nonsteroidal anti-inflammatory drug. Thus, 18f and some related pteridines offer significant protection against reactive oxygen species produced in a model of colitis, probably on account of their properties as antioxidants and radical scavengers.
(§1) Fisher 344 rats (150-200 g) were housed in wire-mesh cages, given standard laboratory chow and tap water ad libitum and acclimatized for one week before experiments. Rats were randomly assigned to experimental groups. All in vivo experiments conform to the law for the protection of experimental animals (Republic of Greece) and are registered at the Veterinary Administration of the Republic of Greece in accordance with recognized guidelines on animal experimentation including Directive 2010/63/EU.
Inhibition of carrageenin-induced edema
Edema was induced in the right hind paw of Fisher 344 rats (150-200 g) by intradermal injection of aqueous carrageenin (0.1 mL, 2%). Pregnant females were excluded from the study, but both sexes were used. Each group comprised 6-15 rats which were bred and housed under standard conditions and received a diet of commercial food pellets and water ad libitum during maintenance but were entirely fasted during the experiment period. Each compound (0.01 mmol/kg body weight) was suspended in water to which had been added a few drops of Tween 80 and then the mixture was ground in a mortar prior to being administered intraperitoneally and simultaneously with the carrageenin injection. Rats were euthanized 1 h after injection, and the difference between the weight of the injected and non-injected paws was calculated for each animal. The change in paw weight was compared with that in control animals (treated with water) and the inhibition of the edema was expressed as a percentage (Table 4). […]

[2] = Reducing ability in DPPH assay; conditions: compound 100 μM
Procedure: Previous work has shown that pterins, their dihydro- and their tetrahydro-derivatives can each be antioxidants or pro-oxidants, depending on the particular conditions. In the present study, several assays were used to assess in vitro antioxidant activity in order to obtain representative information; each method involves the generation of a different radical.
Determination of reducing activity using 1,1-diphenyl-2-picrylhydrazyl radical (DPPH)
To a solution of DPPH in absolute ethanol was added an equal volume of the compound to be tested dissolved in DMSO (20 µL). From a stock solution (10 mM) was prepared a final solution of 100 µM for evaluation of the compounds. The absorbance at 517 nm was recorded after 20 and 60 min at room temperature (Table 2).

[3] = Competition with DMSO for hydroxyl radicals; conditions: compound at 100 µM, Fe3+/ascorbic acid, DMSO 33 mM
Procedure: Competition of the novel pteridine derivatives with dimethyl sulfoxide for hydroxyl radicals was measured. […] The majority of the derivatives were excellent scavengers of hydroxyl radicals with activity higher than the reference compound 6-hydroxy-2,5,7,8-tetramethylchroman-2-carboxylic acid (Trolox).
Competition of pteridine derivatives with DMSO for hydroxyl radicals
Hydroxyl radicals generated by the Fe^3+/ascorbic acid system were detected by determination of formaldehyde produced from the oxidation of DMSO, according to the procedure of Nash. The reaction mixture comprised ethylenediaminetetracetic acid (EDTA) (0.1 mM), Fe^3+ (167 μM), DMSO (33 mM) in phosphate buffer (50 mM, pH 7.4), ascorbic acid (10 mM) and the compound to be tested at 100 µM. After incubation at 37 °C for 30 min the mixture was quenched with aqueous trichloroacetic acid (17% w/v) (Table 2) and the percentage competition of the tested compounds with DMSO for hydroxyl radicals was determined (Table 2).

rat model of colitis = assay: Acetic acid-induced colitis in the rat; type: in vivo, Fisher 344 rats; conditions: 0.01 mmol/kg intrarectally, 4% acetic acid
Procedure: LOX has also been associated with inflammation and ulcerative colitis. In the present study, a model for colitis involving intracolonic administration of aqueous 4% acetic acid in the rat was used, leading to acute inflammatory reaction. Treated rats presented partial to diffuse petechial bleeding, single erosion and limited ulceration indicating an overall healing effect of the compounds. Substituted pteridines presenting a satisfactory combination of activities 5a, 18a, 18d and 18f were tested using this in vivo model characterized by diffuse exfoliated mucosa as well as multiple and extended erosion and ulcers of the colon (Table 3). No mortality was encountered.
as §1
Induction of colitis
Rats were anesthetized using pentobarbital (50 mg/kg ip) prior to administration with 1 mL of either vehicle (0.9% w/v saline) or the compound under study at doses 0.01mmol/kg intrarectally via a polyethylene cannula (fitted to a 1 mL syringe) with the tip inserted approximately 8 cm into the anus. Following 30 min pretreatment, 1 ml of 4% acetic acid was introduced into the colon intrarectally and, after exposure for 60 s, the excess fluid was withdrawn. The luminal content was then expelled by instillation of air (10 mL), the ligature was removed and the abdomen was sutured. Both groups of rats were allowed to recover with food and water and the resulting injury was assessed after 48 h. The experiment was conducted using two groups, each containing 3 animals.
Assessment of colonic damage. Rats were weighed, inspected for the presence of diarrhea and sacrificed using diethyl ether. The colons were excised and opened longitudinally, rinsed with cold saline, pinned out and observed under a dissecting microscope. Colonic damage was scored using the system of MacPherson and Pfeiffer: 0 – normal appearance, 1- hyperaemia, 2 – patchy petechial bleeding, 3 – diffuse petechial bleeding, 4 – partial exfoliated mucosa or single erosion or ulceration, 5 – diffuse exfoliated mucosa or multiple erosions or ulceration. The presence or absence of adhesions between the colon and the surrounding tissues was recorded. Scoring of the colonic damage (Table 4) was carried out by an observer unaware of the treatment.

**Q.** For `CN1CCN(c2nc(NCc3cccs3)c3nccnc3n2)CC1` [Compound 18f, 2-(4-methylpiperazin-1-yl)-N-(thiophen-2-ylmethyl)pteridin-4-amine], which “Greater reduction of edema in rat paw than indomethacin” value ([1]; 0.01 mmol/kg, relative to indomethacin) is on record?
**A.** Its value is 60%.

**Q.** And the “Reduction of rat paw edema after 1 h (%)” value ([1]; rat, 0.01 mmol/kg intraperitoneally, 1 h, mean of two experiments)?
**A.** Its value is 41% and 41 ^† %.

**Q.** What about the “RA (%) 100μM 20 min” value ([2]; 20 min) of the same compound?
**A.** The value was 6%.

**Q.** What about the “RA (%) 100μM 60 min” value ([2]; 60 min) of the same compound?
**A.** Its value is 4%.

**Q.** What about the “Hydroxyl radicals scavenged (%)” value [3] of the same compound?
**A.** Its value is 96%.

**Q.** What about the “Change in body weight (%)” value (rat model of colitis; assessed after 48 h) of the same compound?
**A.** The value was -10.7%.

**Q.** What about the “Score (levels 0–5)” value (rat model of colitis; colonic damage score, 48 h) of the same compound?
**A.** The value was “All rats exhibited partial to diffuse exfoliated mucosa or single/multiple erosion or ulceration (4–5)”.

From article PMC5462101 (Future medicinal chemistry, 2015)
